Test results taken from ChEMBL document CHEMBL1149139, “Azasugar-based MMP/ADAM inhibitors as antipsoriatic agents” (J Med Chem, 2004).

Key:
[1] = biological target: T1, Disintegrin and metalloproteinase domain-containing protein 17 (Homo sapiens, UniProt P78536); assay: Inhibition of heparin-binding HB-EGF shedding
[2] = biological target: Stromelysin-1 (Homo sapiens, UniProt P08254); assay: Inhibition of human recombinant matrix metalloprotease 3
[3] = biological target: T1, Disintegrin and metalloproteinase domain-containing protein 17; assay: Inhibition of human tumor necrosis factor alpha converting enzyme
[4] = biological target: T2, Interstitial collagenase (Homo sapiens, UniProt P03956); assay: Inhibition of human recombinant matrix metalloprotease 1
T2 sequence (P03956 whole entry): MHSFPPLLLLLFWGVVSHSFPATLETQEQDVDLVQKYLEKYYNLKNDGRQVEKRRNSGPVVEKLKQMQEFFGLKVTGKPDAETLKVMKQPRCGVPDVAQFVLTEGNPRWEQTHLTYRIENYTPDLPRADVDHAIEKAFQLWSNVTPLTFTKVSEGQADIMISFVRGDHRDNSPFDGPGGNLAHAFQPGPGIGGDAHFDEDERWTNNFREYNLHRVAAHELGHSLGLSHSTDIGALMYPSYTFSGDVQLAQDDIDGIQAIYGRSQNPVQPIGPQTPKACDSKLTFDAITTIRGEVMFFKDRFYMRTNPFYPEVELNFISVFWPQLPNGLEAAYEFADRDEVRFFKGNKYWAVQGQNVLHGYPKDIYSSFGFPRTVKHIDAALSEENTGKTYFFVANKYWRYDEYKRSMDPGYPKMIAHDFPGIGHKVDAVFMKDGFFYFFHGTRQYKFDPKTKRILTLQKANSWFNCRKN

[5] = biological target: Matrix metalloproteinase-9 (Homo sapiens, UniProt P14780); assay: Inhibition of human recombinant matrix metalloprotease 9
Chain of Matrix metalloproteinase-9 (P14780 whole entry): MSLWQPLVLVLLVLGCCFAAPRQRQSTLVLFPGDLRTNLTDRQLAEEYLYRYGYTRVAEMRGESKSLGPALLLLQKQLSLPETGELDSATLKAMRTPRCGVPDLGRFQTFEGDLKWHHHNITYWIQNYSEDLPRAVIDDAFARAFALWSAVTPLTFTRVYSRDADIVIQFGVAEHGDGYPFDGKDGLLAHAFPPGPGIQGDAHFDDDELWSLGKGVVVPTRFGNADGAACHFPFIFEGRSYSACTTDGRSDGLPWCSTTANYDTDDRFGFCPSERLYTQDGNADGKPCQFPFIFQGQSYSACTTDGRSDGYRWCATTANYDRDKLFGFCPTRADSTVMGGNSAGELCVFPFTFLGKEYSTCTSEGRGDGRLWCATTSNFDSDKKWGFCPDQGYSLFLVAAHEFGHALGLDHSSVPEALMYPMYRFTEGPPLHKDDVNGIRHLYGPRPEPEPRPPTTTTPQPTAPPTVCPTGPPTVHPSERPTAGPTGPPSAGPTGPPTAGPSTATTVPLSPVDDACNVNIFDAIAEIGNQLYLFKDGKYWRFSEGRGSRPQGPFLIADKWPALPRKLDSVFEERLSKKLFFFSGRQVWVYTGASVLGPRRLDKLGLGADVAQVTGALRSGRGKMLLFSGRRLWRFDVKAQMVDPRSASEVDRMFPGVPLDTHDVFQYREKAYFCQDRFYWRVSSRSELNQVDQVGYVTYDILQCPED

T1 sequence (P78536 whole entry, the tested form may be a part): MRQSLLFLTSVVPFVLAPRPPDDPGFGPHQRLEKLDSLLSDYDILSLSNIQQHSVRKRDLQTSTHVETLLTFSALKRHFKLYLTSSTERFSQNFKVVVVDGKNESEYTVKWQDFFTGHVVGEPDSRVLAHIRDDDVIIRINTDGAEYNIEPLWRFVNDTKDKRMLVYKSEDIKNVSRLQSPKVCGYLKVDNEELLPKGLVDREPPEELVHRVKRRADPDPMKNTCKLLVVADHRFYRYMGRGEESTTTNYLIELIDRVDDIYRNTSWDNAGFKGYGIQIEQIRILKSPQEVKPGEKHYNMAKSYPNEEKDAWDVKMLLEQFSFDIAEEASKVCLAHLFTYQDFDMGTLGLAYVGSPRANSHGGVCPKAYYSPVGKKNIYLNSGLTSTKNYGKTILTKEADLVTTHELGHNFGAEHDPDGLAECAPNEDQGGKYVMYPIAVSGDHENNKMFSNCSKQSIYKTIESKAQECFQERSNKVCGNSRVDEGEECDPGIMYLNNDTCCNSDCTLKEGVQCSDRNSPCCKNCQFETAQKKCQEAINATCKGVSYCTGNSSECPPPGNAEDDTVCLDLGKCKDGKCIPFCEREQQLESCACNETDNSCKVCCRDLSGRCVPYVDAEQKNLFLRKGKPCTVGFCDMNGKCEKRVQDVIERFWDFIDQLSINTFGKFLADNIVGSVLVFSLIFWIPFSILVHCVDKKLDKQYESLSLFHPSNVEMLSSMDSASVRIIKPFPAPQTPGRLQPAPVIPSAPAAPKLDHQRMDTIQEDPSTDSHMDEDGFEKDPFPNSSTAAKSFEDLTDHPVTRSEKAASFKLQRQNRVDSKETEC
Chain of Stromelysin-1 (P08254 whole entry, the tested form may be a part): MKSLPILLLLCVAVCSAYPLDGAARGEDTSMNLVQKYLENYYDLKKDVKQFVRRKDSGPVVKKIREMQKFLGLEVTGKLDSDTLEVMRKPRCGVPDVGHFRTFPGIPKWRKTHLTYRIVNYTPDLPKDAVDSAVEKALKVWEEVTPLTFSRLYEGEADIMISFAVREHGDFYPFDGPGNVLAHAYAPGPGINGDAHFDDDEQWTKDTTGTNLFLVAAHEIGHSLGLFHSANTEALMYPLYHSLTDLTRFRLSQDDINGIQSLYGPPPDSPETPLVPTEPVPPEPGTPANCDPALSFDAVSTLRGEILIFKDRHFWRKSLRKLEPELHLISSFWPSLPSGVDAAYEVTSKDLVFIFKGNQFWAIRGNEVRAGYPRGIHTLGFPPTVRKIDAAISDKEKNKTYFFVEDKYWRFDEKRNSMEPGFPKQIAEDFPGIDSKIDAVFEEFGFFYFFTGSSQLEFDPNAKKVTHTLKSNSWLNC

Q: How did the IC50 [1] turn out when `O=C(NO)[C@H]1[C@@H](O)[C@H](O)[C@H](O)CN1S(=O)(=O)c1ccc(Oc2ccccc2)cc1` was run?
A: 340 nM

Q: And the Ki [2]?
A: 0.35 nM

Q: And the Ki [3]?
A: 6.2 nM

Q: What about the Ki [4] of the same compound?
A: 5.3 nM

Q: For `COc1ccc(S(=O)(=O)N2C[C@@H](O)[C@@H](O)[C@H](O)[C@@H]2C(=O)NO)cc1`, which IC50 [1] is on record?
A: 450 nM

Q: And the Ki [3]?
A: 15 nM

Q: And the Ki [4]?
A: 26 nM

Q: How did the Ki [5] turn out when `O=C(NO)[C@H]1[C@@H](O)[C@H](O)[C@H](O)CN1S(=O)(=O)c1ccc(OCc2ccccc2)cc1` was run?
A: 7.4 nM

Q: And the IC50 [1]?
A: 84 nM

Q: And the Ki [2]?
A: 2.1 nM

Q: What about the Ki [3] of the same compound?
A: 1.7 nM

Q: And the Ki [4]?
A: > 850 nM

Q: Which results are given for `O=C(NO)[C@H]1[C@@H](O)[C@H](O)[C@H](O)CN1S(=O)(=O)c1ccc(-c2ccccc2)cc1`?
A: Ki [5]: 47 nM; IC50 [1]: 21000 nM; Ki [2]: 50 nM; Ki [3]: 21 nM; Ki [4]: 162 nM

Q: Which IC50 [1] does the source give for `O=C(NO)[C@H]1[C@@H](O)[C@H](O)[C@@H](O)CN1S(=O)(=O)c1ccc(Oc2ccccc2)cc1` here?
A: 350 nM
